Calls of active or inactive are those of the source. No cut-off for these calls is given here.
Experiments:
[1] = target: T1, Caspase-1 (Homo sapiens, UniProt P29466); experiment: (§1) Inhibition of caspase 1
T1 sequence (P29466 whole entry): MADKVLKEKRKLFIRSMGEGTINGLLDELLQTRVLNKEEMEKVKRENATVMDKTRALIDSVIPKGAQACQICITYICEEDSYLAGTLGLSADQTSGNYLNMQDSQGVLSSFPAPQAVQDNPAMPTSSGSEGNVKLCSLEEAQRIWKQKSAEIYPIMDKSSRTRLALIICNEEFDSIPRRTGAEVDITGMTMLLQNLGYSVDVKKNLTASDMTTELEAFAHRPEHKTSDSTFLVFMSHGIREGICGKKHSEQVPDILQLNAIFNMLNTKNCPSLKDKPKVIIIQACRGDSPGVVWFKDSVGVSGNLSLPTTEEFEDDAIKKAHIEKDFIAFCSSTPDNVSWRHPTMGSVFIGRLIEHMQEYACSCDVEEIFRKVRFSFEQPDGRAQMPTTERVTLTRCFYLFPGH

[2] = target: Stromelysin-1 (Homo sapiens, UniProt P08254); experiment: Inhibition of MMP3
[3] = target: T2, Caspase-1 (Homo sapiens) (UniProt P29466); experiment: as §1
T2 sequence (whole entry): T1 sequence (P29466 whole entry)

Row | SMILES | IC50 [1] [nM] | IC50 [2] [nM] | Activity [3] | Activity [2]
1 | CC(C)C[C@H]1C[C@H]([C@@H](O)CC(=O)Cc2ccccc2)C(=O)N1 [BERKELEYAMIDE A] | 330 | 330 |  | 
2 | CC(=O)OC(c1ccccc1)c1cc(=O)c(C(=O)NC(=O)CC(C)C)cn1CCO (stereo not drawn) |  |  | Active | Active
3 | CC(C)CC1(O)NC(=O)C2(OC(Cc3ccccc3)=CC2=O)C1O (stereo not drawn) [BERKELEYAMIDE D] | 610 | 610 |  | 
4 | CC(=O)OC(c1ccccc1)c1cc(=O)c(C(=O)NC(=O)CC(C)C)co1 (stereo not drawn) |  |  | Active | Active
